Experimental data reported in US11154551B2, “HDAC1,2 inhibitors and methods of using the same” (UNIVERSITY OF UTAH RESEARCH FOUNDATION, priority 2014, dated 2021).
Entries after “also recorded” stand apart in the source; their conditions may differ.

How the values were obtained:
Assay type in all cases: cell-based, human
Karpas-422 cells [1] = test: propidium-iodide / BrdU-PI cell cycle analysis
Description: (§1) (B): Quantitation of the cell cycle data in (A), compiled from three independent analyses. The graphs plotted the average percentage of cells in each phase of the cell cycle. […] (C): FACS analysis following BrdU-PI staining of Karpas-422 and SUDHL4 cells was performed following a 48 h or 72 h treatment with ACY-957.
Cell cycle analysis of propidium-iodide stained cells was performed with fixed cells. […] (C): FACS analysis following BrdU-PI staining of Karpas-422 and SUDHL4 cells was performed following a treatment with 2 μM ACY-957, 50 nM doxorubicin or both for 48 h.
(§2) (B): Quantitation of the cell cycle analysis performed in (A). Data from three independent cell cycle analyses were compiled and average percentage cells with standard errors were shown in this panel.
(§3) Propidium-iodide Cell Cycle Analysis.
(§4) Since these DLBCL cells expressed a hyperactive form of EZH2, pharmacological inhibition of EZH2 activity was considered a therapeutic strategy. […] GSK126 was a S-adenosyl-methionine-competitive inhibitor of EZH2 methyltransferase activity, and DZNep was a S-adenosylhomocysteine hydrolase inhibitor that disrupted the components of the PRC2 complex, thereby causing reduced chromatin-associated EZH2 levels.
To test this possibility, cell cycle analysis following treatment of Karpas-422 with ACY-957, doxorubicin, or ACY-957 in combination with doxorubicin was performed.

SUDHL4 cells = test: propidium-iodide / BrdU-PI cell cycle analysis
Description: as §1, §2, §3, §4

Karpas-422 cells [2] = test: RNA-seq gene expression analysis; settings: 24 h
Description: RNA samples obtained from three independent treatments were subjected to RiboZero stranded sequencing using the Illumina Hiseq2000 sequencer. RNA-seq data from ACY-957-treated samples was compared to the publically available RNA seq data set from Karpas-422 cells following GSK126 treatment of Karpas-422 cells. […] Genes with adjusted p-value<0.05 and absolute log 2 fold change>0.585 were used in this analysis.
Total RNA was isolated from Karpas cells that were treated with DMSO or 2 μM ACY-957 for 24 h using the Versagene RNA isolation kit (5 Prime). The treatments were done in triplicate and sequenced using the Illumina Hiseq2000 sequencer. Illumina TruSeq Stranded sequencing following RiboZero treatment was performed.
Three independent DMSO or ACY-957 treatments of Karpas-422 cells for 24 h were performed for total RNA isolation, which was then subjected to RNA-seq involving next-generation sequencing and bioinformatics analysis.

[3] = tested on: SUDHL4 and Karpas-422 cells; test: γH2AX foci formation by immunofluorescence
Description: (§5) The percentage of cells with 6 or greater γH2AX foci were counted in three independent experiments and at least 100 cells were counted in each experiment. […] Histones were purified using trichloroacetic acid extraction protocol (see Example 1). Western blot analysis was done with anti-γH2AX and histone H2AX served as the loading control. […] Following DMSO or ACY957 treatment, cells were exposed to a 5Gy dose of ionizing radiation and allowed to recover for 30 minutes prior to chromatin extraction. Western blot analysis was done with anti-γH2AX where total histone H2AX served as a loading control. (D): Karpas-422 cells were micro-irradiated with laser and allowed to recover for 15 minutes before fixation and immunofluorescence staining with anti-γH2AX, anti-HDAC1 and anti-HDAC2 antibodies was done.
Immunofluorescence. Cells were fixed in either 10% formalin or methanol-acetone (1:1) for 10 min at −20*C. The cells were then permeabilized with 0.5% Triton-X-100 in PBS for 5 min at room temperature (RT), blocked in 10% normal goat serum (Sigma) for 30 min and stained with primary antibody for 1 h at RT. Cells were incubated with secondary antibody (anti-mouse or anti-rabbit IgG, Alexa Fluor 488/546) at a 1:600 dilution for 45 min at RT, and counterstained with Hoechst 33342 (Sigma) at 1:1000 dilution to visualize the nuclei. Images were captured using Zeiss Axioskop mot plus microscope with a 40× lens and analyzed using the AxioVision software.

[4] = tested on: SUDHL4 and Karpas-422 cells; test: Western blot of γH2AX on chromatin, with or without ionizing radiation
Description: as §5

[5] = tested on: SupB15 (Ph+PreB-ALL) cells; test: γH2AX immunofluorescence; settings: 2 μM, 48 hours
Description: SupB15 cells were treated with 2 μM ACY1035, ACY1071, ACY957, or solvent (DMSO) for 48 hours. (A) Immunofluorescence with γH2AX was performed on treated SupB15 cells. The number of γH2AX foci was counted in around 100 cells for each treatment and classified into cells with no foci, 1-5, 6-10, and greater than 10 foci. (B) SupB15 cells treated with DMSO or ACY1035 for 48 hours were tested via neutral comet assay to measure the amount of double-strand breaks (DSBs), indicated by the tail.
BCR-ABL promotes DNA repair to prevent DNA damage accumulation in Philadelphia chromosome-positive (Ph+) leukemia cells. To examine the effect of various HDAC1,2-selective inhibitors on DNA repair and DNA damage response in Pre-B-ALL cells that express BCR-ABL, SupB15 (Ph+PreB-ALL) cells were treated with 2 μM ACY1035 or 2 μM ACY1071 or 2 μM ACY957 for 48 hours.

[6] = tested on: Karpas-422 (EZH2GOF) cells; test: neutral comet assay of DSB repair
Source text: (A) Measurement of repair efficiency in SUDHL5 (EZH2^WT) and Karpas-422 (EZH2^GOF) cells using neutral comet assay that detects only double-strand breaks (DSBs). In the comet, the head (H) represents intact DNA and the tail (T) represents the number of DSBs in a single cell. Tail moment is a measure of length and intensity of DNA in the tail, and the average tail moments from 100 comets are indicated within the figure for each cell/treatment combination. Doxo indicates doxorubicin; H121N indicates HDAC1,2 inhibitor. (B) DNA damage in EZH2GOF cells following knockdown of HDAC1,2 using siRNA. NT indicates non-targeting control siRNA; HDAC1,2 siRNA indicates combined treatment with HDAC1 siRNA and HDAC2 siRNA. (C) Karpas-422 cells treated with DMSO solvent or HDAC1,2 inhibitor were subjected to microlaser irradiation. H3K27me3, γH2AX, Bmi-1, and serine2-phosphorylated RNA Polymerase II (engaged in transcriptional elongation) were monitored at laser break sites (arrows) after 15 minutes of recovery time. Numbers overlaying the images indicate percentages of cells with γH2AX lines that co-localized with H3K27me3, Bmi-1, or Pol2Ser2-P lines from at least four independent experiments (p value<0.01).
Indeed, EZH2, H3K27me3, and HDAC1,2 all localize to sites of DNA breaks, which links them to DNA repair. […]

[7] = 24 h, 2 μM ACY-957, 0.5 μM DZNEP, 0.5 μM GSK126
[8] = 48 h, 2 μM ACY-957, 0.5 μM DZNEP, 0.5 μM GSK126
[9] = 72 h, 2 μM ACY-957, 0.5 μM DZNEP, 0.5 μM GSK126

Nc1ccc(-c2cccs2)cc1NC(=O)c1ccc2nc(N3CCNCC3)ccc2c1 [ACY-957, N-(2-amino-5-(thiophen-2-yl)phenyl)-2-(piperazin-1-yl)quinoline-6-carboxamide]
cell death / sub-G1 population (Karpas-422 cells [1]; 2 μM ACY-957, 50 nM doxorubicin or both, 48 h): sub-G1 population (i.e., dead cells) was observed
progression through the cell cycle (Karpas-422 cells [1]; [7]): did not affect their progression through the cell cycle
cell cycle / sub-G1 (dead cells) (Karpas-422 cells [1]; [8]): modest accumulation of sub-G1 population
S-phase population, BrdU-PI FACS (Karpas-422 cells [1]; 48 h and 72 h, accompanied by increased cell death): decrease in S-phase population
cell cycle / sub-G1 (dead cells) (Karpas-422 cells [1]; [9]): larger increase in the number of sub-G1/dead cells; also recorded: large increase in the number of sub-G1 or dead Karpas-422 cells
progression through the cell cycle (SUDHL4 cells; [7]): did not affect their progression through the cell cycle
cell cycle / G1 arrest (SUDHL4 cells; 48 h, 2 μM ACY-957, 0.5 μM GSK126): accumulation of SUDHL4 cells in G1 phase (G1 arrest)
S-phase population, BrdU-PI FACS (SUDHL4 cells; 48 h and 72 h, accompanied by G1 arrest): decrease in S-phase population
cell cycle / G1 arrest and sub-G1 (SUDHL4 cells; [9]): greater number of cells arrested in G1 phase; also recorded: cell cycle arrest at G1 phase in SUDHL4 cells
number of genes up regulated (Karpas-422 cells [2]; 2 μM, vs DMSO): 492 genes
BLIMP1 expression up regulation (Karpas-422 cells [2]; DESeq analysis of RNA-seq): 1.7 fold
cells with γH2AX foci [3, 8]: significant increase in the number of cells with greater than six γH2AX foci
γH2AX foci by immunofluorescence ([3]; EZH2GOF DLBCL cells): increase in γH2AX
chromatin associated γH2AX ([4]; 48 hr, Western): increase in chromatin associated γH2AX
γH2AX levels on chromatin after ionizing radiation ([4]; 48 h treatment, 5Gy, 30 min recovery): Increased γH2AX levels on chromatin
DNA damage, quantitation of γH2AX foci [5]: statistically significant increase in DNA damage
DSBs, comet tail moment [6]: increase in comet tail moment
